Results published in patent US10947188B2, “Small molecule ferroptosis inducers” (THE TRUSTEES OF COLUMBIA UNIVERSITY IN THE CITY OF NEW YORK, priority 2016, dated 2021).

Test system: HT-1080
Test: Modulatory profiling: Alamar Blue viability, lethal compound cotreated with death modulator (EC50, AUC); as to AUC HT.BHA: reference of the scale not given here; as to AUC HT.EGTA: reference of the scale not given here
Assay type: cell-based
Parameters: AUC, modulator HT.3MA / AUC, modulator HT.ALLN / AUC HT.ATA / AUC HT.ActD / AUC HT.BHA / AUC HT.BHT / AUC HT.BocD / AUC HT.CHX / AUC HT.Co2+ / AUC HT.DPQ / AUC HT.EGTA / AUC HT.Lmim / AUC HT.NAD+ / AUC HT.Nec-1 / AUC HT.SP600125 / AUC HT.TLCK / AUC HT.U0126: unit not given beside the values
Conditions: for EC50: Homo sapiens, HT-1080, 48 h, 48 h

N/C(Cc1ccc(Cl)cc1)=N\OC(=O)c1cccc2ccccc12 [CIL70] was tested, and the “AUC HT.ATA” value (HT-1080, modulator ATA) was −0.004378, the “AUC HT.ActD” value (HT-1080, modulator ActD) was −0.02914 and the “AUC HT.BHA” value (HT-1080, modulator BHA) was 0.1062. For the same molecule, the “AUC HT.BHT” value (HT-1080, modulator BHT) was −0.03541, the “AUC HT.BocD” value (HT-1080, modulator BocD) was −0.03004 and the “AUC HT.CHX” value (HT-1080, modulator CHX) was −0.02631. For the same molecule, the “AUC HT.Co2+” value (HT-1080, modulator Co2+) was 0.01978, the “AUC HT.CspA” value (HT-1080, modulator CspA) was −0.0468 and the “AUC HT.DPQ” value (HT-1080, modulator DPQ) was 0.02696. For the same molecule, the “AUC HT.EGTA” value (HT-1080, modulator EGTA) was 0.01851, the “AUC HT.Gd3+” value (HT-1080, modulator Gd3+) was −0.01357 and the “AUC HT.LNAME” value (HT-1080, modulator LNAME) was 0.005993. The “AUC HT.Lmim” value (HT-1080, modulator Lmim) was 0.2198, the “AUC HT.NAD+” value (HT-1080, modulator NAD+) was 0.04321 and the “AUC HT.NMMA” value (HT-1080, modulator NMMA) was −0.005818. For the same molecule, the “HT.atoc (AUC)” value (HT-1080, modulator atoc) was 0.2733, the “HT.bCarotene (AUC)” value (HT-1080, modulator bCarotene) was −0.001707 and the “HT.deferox (AUC)” value (HT-1080, modulator deferox) was 0.2561. For the same molecule, the “HT.digoxin (AUC)” value (HT-1080, modulator digoxin) was −0.1366, the “HT.trolox (AUC)” value (HT-1080, modulator trolox) was 0.1205 and the “HT.zVAD (AUC)” value (HT-1080, modulator zVAD) was 0.002272. The “effect of ferroptosis inhibitors (iron chelators and lipophilic antioxidants) on lethality in modulatory profiling” value (HT-1080 and BJeLR) was “suppression by canonical ferroptosis inhibitors”, the EC50 (HT-1080, DMSO) was 4.44 µM and the EC50 (HT-1080, cotreated with MEK inh U0126) was 10.3 µM. The EC50 (HT-1080, cotreated with antioxidant Atoc) was 32.2 µM, the EC50 (HT-1080, cotreated with antioxidant BHA) was 13.3 µM and the EC50 (HT-1080, cotreated with antioxidant BHT) was 6.5 µM. It also gave an EC50 (HT-1080, cotreated with antioxidant Trolox) of 11.1 µM, an EC50 (HT-1080, cotreated with iron-chelator Deferoxamine) of 157 µM and an EC50 (HT-1080, cotreated with iron-chelator Lmim) of 47.8 µM.
